In general, IC50 refers to the concentration at which inhibition is half-maximal. A lower IC50 goes with greater potency in that assay.

The record followed here is US20020059032A1, “Rational selection of putative peptides from identified nucleotide or peptide sequences” (priority 1999, published 2002).

One experiment concerns Jurkat T cells. The experiment is described as follows: Binding test with Jurkat T cells. Further details: species or system human. How it is done:
Bonding of Radiolabelled Agonists to Jurkat T cells
Culture Conditions of the Cells of the Jurkat T Human Lymphocytic Line
The Jurkat cells are cultured in an RPMI 1640 medium supplemented with foetal calf serum (10% volume/volume) and antibiotics (50 U/ml of penicillin and 50 μg/ml of streptomycin) serum in a humid incubator at 37° C. under an atmosphere of 5% CO2 in air.
The cells are obtained by centrifugation (514 g, 5 minutes), then are washed twice in a standard medium containing: 98 mM of NaCl; 6 mM of KCl; 2.5 mM of NaH2PO4; 1.5 mM of CaCl2, 1 mM of MgCl2, 5 mM of Na-pyruvate; 5 mM of Na-fumarate; 5 mM of Na-glutamate; 2 mM of glutamine; 11.5 mM of glucose; 24.5 mM of Hepes (N-[2-hydroxyethyl]piperazine-N′-[2-ethane sulfonic acid]); 0.5 g/l of bacitracin; 0.1 g/l of soya bean trypsin inhibitor, pH 7.4
Experiments with agonist bonds labelled with iodine 125 (about 50 picomolars) are carried out at 37° C. under agitation for 45-60 minutes in a final volume of 0.5 ml of standard medium containing 2×10^6 cells (4×10^6 cells/ml) and in the presence or absence of competitors. The non-specific bond is evaluated in the presence of a micromolar concentration of cold homologous peptide.

The target of another experiment is rat brain membranes. The experiment is described as follows: Binding test with rat brain membranes. How it is done: (§1) The membranes are placed in a buffer (50 mM of Tris-HCl, 5 mM of MgCl2 and 0.1 g/l of bacitracin) at the desired protein concentration (iodized CCK bond, 0.1 mg of protein/ml; iodized gastrin bond: 0.5 mg of proteins/ml). They are then incubated in the presence of a labelled ligand in a total volume of 500 μl (about 10 pM for the iodized CCK8, 20 pM for the iodized gastrin13), 50-80 minutes at 25° C., and in the presence or absence of cold agonists. The reaction is stopped with 3 ml of additional BSA buffer (20 g/l) at 4° C., the tubes are centrifuged at 10,000×g, the supernatant is drawn off and the radioactivity associated with the precipitate is evaluated with a γ counter.
(§2) Membrane Preparations of Different Rat Tissues and Organs
(§3) 1) The rats are sacrificed by rupturing their cervical vertebrae, and the different tissues are removed and washed several times in a large volume of NaCl at 9 per thousand.
(§4) The following steps are carried at 4° C.
(§5) 2) The tissues and organs are transferred, still separately, in a sucrose buffer containing:
(§6) They are then cut up carefully with the aid of fine scissors and crushed using an ultraturax apparatus. […]
(§7) 8) The protein content in the membrane suspensions is evaluated using a Bradford dosage device (BioRad, acording to the manufacturer's instructions). […]

In a further experiment the test system is HeLa cells. Put plainly: Binding test with HeLa cells. As to the method: Studies of the Bonding of Labelled Agonists on the HeLa Cell Line
The cells are cultured in a DMEM medium supplemented with 10% foetal calf serum, 0.5% of antibiotics (penicillin/streptomycin) and 0.5% of glutamine.
24 to 48 hours before experimentation, the cells are replicated in 24-well plates with approximately 100,000 cells per well and per ml.
The bonding studies are carried out with a BindH buffer
For the experiment, the medium is removed and the cells washed twice with 1 ml of buffer. The reaction medium (500 μl) containing the labelled agonist is added into each well in the presence or absence of the cold homologous agonist and the plates are incubated for one hour at 37° C.
The reaction is stopped by removal of the reaction volume and the wells are rinsed twice with 1 ml of BindH with 20% BSA.
The cells are lysed with 500 μl of 1N soda for 20 minutes at ambient temperature and the radioactivity associated with the lysate is evaluated using a gamma counter.

The test system of experiment [1] is different rat organ membranes. The experiment is described as follows: Binding test with different rat organ membranes. How it is done:
as §1, §2, §3, §4, §5, §6, §7

On to “YERNRQAAAANPENSRGK [Example 6, H-YERNRQAAAANPENSRGK-NH2]”, for which, in the experiment with Jurkat T cells, the “Results, binding test with Jurkat T cells (positive/negative)” value is reported as “negative”. The same substance had a half-inhibitory concentration (IC50) at rat brain membranes of 90 µM.
As to “YFKIDNVKKARVQWA [Example 3, H-YFKIDNVKKARVQWA-NH2]”, the IC50 in the experiment with HeLa cells was determined as 50 µM.
In the case of “ELGRGPGPPLPERGA [Example 5, H-ELGRGPGPPLPERGA-NH2]”, the “Results, binding test with Jurkat T cells (positive/negative)” value in the experiment on Jurkat T cells is recorded as “negative”. In addition, the half-maximal inhibitory concentration (IC50) on rat brain membranes was 90 µM.
With PLEPSGG [Example 4, H-PLEPSGG-NH2], the “Results, binding test with different rat organ membranes (positive/negative)” value in experiment [1] was “negative”.
On to “GQDSIEPVPGQK [Example 1, H-GQDSIEPVPGQK-NH2]”, for which the “Results, binding test with different rat organ membranes (positive/negative)” value in experiment [1] is on record as “negative”. Besides, the “Results, binding test with Jurkat T cells (positive/negative)” value in the experiment on Jurkat T cells is given as “negative”.
